Measured values: PubChem BioAssay (NCI)
Where “and” joins values, the source holds several entries; their conditions need not be identical. Equal values may be shown once.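 1) Cells in 96-well plates. 2) Compound, 48 h, 5 concentrations. 3) Linear interpolation between surrounding doses. 4) Unreached endpoint = highest concentration. GI50: concentration for 50% inhibition of growth. TGI: concentration producing complete growth inhibition.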

Tests used:
Assay in all cases: DTP human tumour cell line panel, 48 h
A498 renal = test system: A498 renal
HCC-2998 colon = test system: HCC-2998 colon
HCT-116 colon = test system: HCT-116 colon
M14 melanoma = test system: M14 melanoma
SK-MEL-2 melanoma = test system: SK-MEL-2 melanoma
SNB-19 CNS = test system: SNB-19 CNS
HT29 colon = test system: HT29 colon
MDA-MB-231 breast = test system: MDA-MB-231 breast

SMILES | GI50 (A498 renal) [µM] | TGI (A498 renal) [µM] | GI50 (HCC-2998 colon) [µM] | TGI (HCC-2998 colon) [µM] | GI50 (HCT-116 colon) [µM] | TGI (HCT-116 colon) [µM] | GI50 (M14 melanoma) | TGI (M14 melanoma) [µM] | GI50 (SK-MEL-2 melanoma) [µM] | TGI (SK-MEL-2 melanoma) [µM] | GI50 (SNB-19 CNS) [µM] | TGI (SNB-19 CNS) [µM] | GI50 (HT29 colon) [µM] | TGI (HT29 colon) [µM] | GI50 (MDA-MB-231 breast) [µM] | TGI (MDA-MB-231 breast) [µM]
O=C(Nc1cc(Cl)cc(Cl)c1)c1cccc(NC2=C(Cl)C(=O)N(Cc3ccccc3)C2=O)c1 | 22.2 | 50.7 | 37.1 | > 100 | 12 | > 100 | 35.8 µM | > 100 | 65.2 | > 100 | 54 | > 100 | – | – | – | –
Cc1ccc(Cl)c(NS(=O)(=O)c2ccc(-c3cnc(C4CC4)o3)cc2)c1 | 0.0286 | 0.303 | 0.233 | 14.6 | 0.0537 | > 36.8 | 0.0698 µM | > 42.6 | 0.412 | 50 | 0.129 | > 100 | 0.0517 | 16.2 | 0.651 | > 100
Nc1ncc(-c2ccc3ncnc(N4CCc5ccc(Cl)cc54)c3c2)cc1C(F)(F)F | 0.301 | 2.52 | 3.43 | > 100 | 2.53 | 16.6 | 4.63 µM | 26 | 5.12 | 23.5 | 2.63 | 23.7 | 1.83 | 16.2 | 1.29 | 12.4
COc1ccccc1/C=C\C(=O)C1COCN1 (stereo unspecified) | – | – | – | – | – | > 100 | – | > 100 | – | 56.7 | – | 33.9 | – | 30.6 | – | 38.8
Cc1nc2sc3c(N)ncnc3c2c(C)c1C | > 25 | > 25 | > 25 | > 25 | > 25 | > 25 | > 25 µM | > 25 | > 25 | > 25 | > 25 | > 25 | > 25 | > 25 | > 25 | > 25
CCN(CC)CCN1c2nc3ccccc3cc2Sc2cc3ccccc3nc21 | 3.08 | 8.62 | 1.69 | 3.72 | 1.4 | 2.78 | 1.64 µM | 3.38 | 1.69 | 4.4 | 3.03 | 11.9 | 1.21 | 3.06 | 1.58 | 4.03
CCOc1ccc(C(C[N+](=O)[O-])Sc2ccccc2N)cc1 (stereo unspecified) | 12.5 | 25 | 1.77 | 3.25 | 1.7 | 3.36 | 6.6 µM | 19.5 | 16.1 | 31.2 | 9.22 | 21.2 | 2.07 | 4.19 | 2.43 | 7.84
CCN(CC)c1ccc(-c2cc(-c3cc(OC)c(OC)c(OC)c3)nc(N3CCC(O)CC3)c2C#N)cc1 | 1.07 | 14.2 | 0.374 | 2.13 | 0.281 | 1.71 | 0.262 µM | 0.799 | 0.289 | 0.889 | 1.72 | 7.42 | 0.277 | 1.28 | 0.214 | 1.77
CCN1C(=O)N(CC)C2C1NN=c1s/c(=C3\C(=O)N(C4CCCC4)c4ccccc43)c(=O)n12 (stereo unspecified) | 0.198 | 0.854 | 1.65 | 5.19 | – | – | 0.913 µM | 6.73 | 2.76 | 17.6 | 3.47 | 40.5 | 0.695 | > 100 | 2.2 | 20.6
COc1ccccc1[As]=[As]c1ccccc1OC (stereo unspecified) | 0.0622 | 0.184 | 0.0785 | 0.218 | 0.0245 | 0.0641 | 0.0407 µM | 0.147 | 0.157 | 0.3 | 0.065 | 0.193 | 0.0405 | 0.174 | 0.0564 | 0.182
N#Cc1nc(C#N)c(Sc2ccccc2)c(Sc2ccccc2)c1Sc1ccccc1 | 2.72 | 7.05 | 2.24 | 4.66 | 0.301 | – | – | – | 2.17 | > 21.6 | 2.5 | 5.9 | 0.407 | – | 0.296 | 0.773
CCCCCCCCCCCCN=C(N)c1ccc(N2CCN(c3ccc(C(N)=NCCCCCCCCCCCC)cc3)CC2)cc1 | – | – | 8.67 | 17 | 6.9 | 13.8 | 7.82 µM | 16.4 | 17.5 | > 50 | 11 | 20.5 | 5.68 | 25.6 | 10.3 | 20
NCCCNc1nc2ccccc2c2c(=O)c3cccc(Cl)c3sc12 | 1.02 | 2.74 | 1.48 | 2.98 | 1.34 | 2.7 | 1.61 µM | 3.06 | 1.88 | 3.81 | – | – | – | – | 1.18 | 2.56
CNC(=O)c1c(F)cccc1Nc1nc(Nc2cc3c(cc2OC)CCN3C(=O)CN(C)C)nc2[nH]ccc12 | > 39.6 | > 58.7 | 4.42 | 9.2 | 1.54 | 3.33 | 1.64 µM | 3.37 | 4.87 | 19.8 | 7.04 | > 62.8 | 0.0643 | 1.66 | 1.9 | 4.15
O=C(/C=C/c1ccccn1)c1ccc(OCc2nnc(-c3ccc(Cl)cc3)o2)cc1 | 4.5 | 17.2 | 1.8 | 3.26 | 0.45 | 1.62 | 1.99 µM | 3.87 | 3.29 | 8.61 | 1.86 | 3.98 | 1.85 | 3.99 | 2.27 | 5.09
O=C1Nc2ccccc2/C1=C\c1nc(-c2ccccc2F)n2ccccc12 | 2.81 | 11 | 55.2 | > 100 | 1.97 | 4.04 | 5.65 µM | 17.9 | 6.81 | 19.6 | 4.7 | 16.7 | 3.5 | 12.1 | 2.27 | 9.07
Cn1cc(C2=C(c3cn(CCCN)c4ccccc34)C(=O)NC2=O)c2ccccc21 | 3.92 | 9.18 | 5.84 | 16.2 | 3.48 | 10.1 | 4.38 µM | 8.6 | 3.04 | 7.07 | 7.89 | 24.9 | 4.74 | 18.4 | 6.49 | 16.7
COS(C)(=O)=O | – | > 2 | – | > 2 | – | > 2 | – | > 2 | – | > 2 | – | > 2 | – | > 2 | – | > 2

SMILES | GI50 (A498 renal) [µM] | TGI (A498 renal) [µM] | GI50 (HCC-2998 colon) [µM] | TGI (HCC-2998 colon) [µM] | GI50 (HCT-116 colon) [µM] | TGI (HCT-116 colon) [µM] | GI50 (M14 melanoma) | TGI (M14 melanoma) [µM] | GI50 (SK-MEL-2 melanoma) [µM] | TGI (SK-MEL-2 melanoma) [µM] | GI50 (SNB-19 CNS) [µM] | TGI (SNB-19 CNS) [µM] | GI50 (HT29 colon) [µM] | TGI (HT29 colon) [µM] | GI50 (MDA-MB-231 breast) [µM] | TGI (MDA-MB-231 breast) [µM]
COc1ccc(C2C(C#N)=C(N)Oc3c2sc2c(Br)cccc32)cc1 (stereo unspecified) | 1.37 | 13.9 | 1.64 | 6.25 | 1.93 | 12.3 | 1.46 µM | 6.8 | 2.38 | 12.7 | 4.04 | 21.6 | 3.8 | 11.2 | 2.78 | 12.7
Fc1ccc(-c2nn3ccccc3c2-c2ccncc2)cc1 | > 18.3 | > 25 | > 25 | > 25 | > 25 | > 25 | > 25 µM | > 25 | > 25 | > 25 | > 25 | > 25 | 14 | > 25 | > 25 | > 25
O=C1Cc2cc(CCn3cncn3)c(Cl)cc2N1 | 32.5 | > 100 | > 100 | > 100 | 32 | > 100 | 3.98 µM | > 100 | 12.4 | > 100 | 70.7 | > 100 | > 100 | > 100 | 4.66 | > 100
CCC(=O)N1C/C(=C/c2ccc(Br)cc2)C(=O)/C(=C/c2ccc(Br)cc2)C1 | 1.43 | 3.06 | 0.802 | 2.09 | < 0.0417 | 0.311 | 0.885 µM | 2.7 | 1.93 | 4 | 0.995 | 2.9 | 0.102 | 0.433 | 0.76 | 2.36
COc1ccc2c(c1)CCc1cc(OC)ccc1/[N+]([O-])=[N+]\2[O-] | – | 34.2 | – | 58.2 | – | – | – | > 46.4 | – | 43.8 | – | 39 | – | 45.2 | – | 37
Oc1ccc(C(O)(c2ccccc2)c2ccccc2)c2ccccc12 | – | – | – | – | – | 10.7 | – | 10.7 | – | 7.25 | – | 19.8 | – | 14.1 | – | 5.27
O=C(Nc1ccccc1)OC1OC(COC(=O)c2ccccc2)C(OC(=O)c2ccccc2)C1OS(=O)(=O)c1ccc([N+](=O)[O-])cc1 (stereo unspecified) | – | > 100 | – | > 100 | – | > 100 | – | > 100 | – | > 100 | – | > 100 | – | > 100 | – | –
O=C(Nc1cc(Cl)ccc1O)c1cccc(Nc2ccnc(C(F)(F)F)c2)c1 | 3.28 | 13.4 | 5.01 | 17.1 | 2.22 | 17.6 | 3.85 µM | 18.3 | – | – | 2.42 | 13.8 | 11.1 | 31.8 | 2.63 | 26.7
COc1cc2ncnc(Nc3ccc(Oc4ccnc(C)c4)c(C)c3)c2cc1NC(=O)CC1CCSS1 (stereo unspecified) | 7.94 | 22.8 | – | – | – | – | – | – | 0.904 | 1.91 | 1.08 | 2.49 | – | – | 0.895 | 1.98
CCCc1nc(Cl)c(Cl)c(Cl)n1 | – | > 100 | – | – | – | 26.8 | – | > 76.1 | – | – | – | > 96.4 | – | > 100 | – | 67.9
Clc1ccc2c(c1)N(C1CCCN(Cc3ccccc3)C1)c1ccccc1S2 (stereo unspecified) | 14.7 | > 100 | 5.59 | 32.3 | 2.92 | 11.5 | 2 µM | 4.41 | – | – | 6.02 | > 100 | 11.5 | > 100 | 3.35 | 13.1
COc1cc(-c2nc3ccccc3o2)cc(CN2CCCCC2)c1O | 10 | 24.5 | 4.73 | 22.4 | 4.27 | 35.4 | 1.48 µM | 3.26 | 4.58 | 15.8 | 5.44 | 26.9 | – | – | 12.2 | > 100
CCC(C)C1=C(O)[N+]2([O-])Oc3ccc(C4=C(O)C(=O)C(c5ccc(O)cc5)=C(O)C4=O)cc3OC2(C(C)CC)C(=O)N1O (stereo unspecified) | 5.24 | 41.9 | 6.78 | 57.2 | 5.02 | > 100 | 2.75 µM | 11.5 | – | – | 4.95 | 83.6 | 31.4 | > 100 | 15.5 | 63.8
O=C(c1ccc([N+](=O)[O-])cc1)C(Br)C(Br)c1ccnc2ccccc12 (stereo unspecified) | – | 25.7 | – | – | – | 4.04 | – | 9.81 | – | 26.4 | – | 30.8 | – | 11.7 | – | 27.8
COc1ccc(S(=O)(=O)Nc2c(/C=C\c3cc(OC)c(OC)c(OC)c3)ccc(OC)c2O)cc1 | 0.0188 | 0.085 | 0.0316 | 29.9 | 0.032 | > 100 | – | – | 0.0437 | 37.1 | 0.0602 | > 100 | 1.4 | 10.8 | 0.0503 | 2.35
COc1cc([N+](=O)[O-])c(S(=O)(=O)O)cc1-n1nc(C(=O)Nc2ccccc2)n[n+]1-c1cc(S(=O)(=O)[O-])c([N+](=O)[O-])cc1OC | – | – | – | – | – | > 100 | – | > 100 | – | > 100 | – | > 100 | – | > 100 | – | –
COc1ccc2c(c1)/C(=C\c1c(-c3cc(OC)ccc3OC)nc3sccn13)C(=O)N2 | – | – | – | – | 1.42 | 3.48 | 7.14 µM and 1.71 µM | 3.09 | 1.77 | 4.2 | 1.72 | 3.54 | 1.37 | 2.66 | 3.32 | 14.2
